Where a SMILES comes first, the peptide text is derived from it. [ ]: non-standard residue; d: D form.
Key:
[1] = biological target: T1, Endothelin receptor type B (Rattus norvegicus, UniProt P21451); assay: Affinity against ET B receptor
T1 sequence (P21451 whole entry): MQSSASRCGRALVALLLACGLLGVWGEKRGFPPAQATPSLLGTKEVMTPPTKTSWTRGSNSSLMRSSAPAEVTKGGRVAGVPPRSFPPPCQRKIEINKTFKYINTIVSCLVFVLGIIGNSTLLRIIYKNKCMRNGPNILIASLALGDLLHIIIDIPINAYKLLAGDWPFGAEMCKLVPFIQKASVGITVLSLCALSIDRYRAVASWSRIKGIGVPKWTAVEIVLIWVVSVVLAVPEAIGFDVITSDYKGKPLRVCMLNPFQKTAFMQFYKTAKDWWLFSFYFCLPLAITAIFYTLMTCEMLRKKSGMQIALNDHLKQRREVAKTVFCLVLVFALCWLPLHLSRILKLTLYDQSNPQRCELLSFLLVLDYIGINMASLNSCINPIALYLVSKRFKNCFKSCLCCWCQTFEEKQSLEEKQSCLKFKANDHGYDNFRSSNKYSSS

Endothelin-1 receptor = biological target: T2, Endothelin-1 receptor (Homo sapiens, UniProt P25101); assay: Affinity against ET A receptor
T2 sequence (P25101 whole entry): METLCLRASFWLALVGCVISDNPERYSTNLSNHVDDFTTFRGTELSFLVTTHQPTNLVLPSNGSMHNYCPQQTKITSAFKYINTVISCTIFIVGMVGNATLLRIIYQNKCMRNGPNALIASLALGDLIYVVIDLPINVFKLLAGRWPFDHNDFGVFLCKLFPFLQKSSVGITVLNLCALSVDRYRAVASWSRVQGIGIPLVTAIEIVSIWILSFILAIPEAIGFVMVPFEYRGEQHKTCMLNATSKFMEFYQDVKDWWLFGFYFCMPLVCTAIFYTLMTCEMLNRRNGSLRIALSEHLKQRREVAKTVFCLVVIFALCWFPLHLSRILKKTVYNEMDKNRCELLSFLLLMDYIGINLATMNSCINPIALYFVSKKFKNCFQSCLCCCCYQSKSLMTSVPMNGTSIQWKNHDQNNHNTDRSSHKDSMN

Ki [1] | Ki (Endothelin-1 receptor) | SMILES
12 µM | 41 µM | CCCN1c2ccccc2C(=O)N(CC(=O)O)c2cc(Cc3c[nH]c4ccccc34)ccc21
6 µM | 33 µM | CCCN1c2ccccc2C(=O)N(CC(=O)O)c2cc(NC(=O)c3cc4ccccc4[nH]3)ccc21
9 µM | 17 µM | CCCN1c2ccccc2C(=O)N(CC(=O)O)c2cc(NCc3cccc4ccccc34)ccc21
11 µM | 80 µM | CCCN1c2ccccc2C(=O)N(CC(=O)O)c2cc(NC(=O)c3c[nH]c4ccccc34)ccc21
 | 0.224 µM | CC(C)C[C@@H]1NC(=O)[C@@H](C(C)C)NC(=O)[C@@H]2CCCN2C(=O)[C@@H](CC(=O)O)NC(=O)[C@@H](Cc2cccc3ccccc23)NC1=O
 | 83 µM | CCCN1c2ccccc2C(=O)N(CC(=O)O)c2cc(NC(=O)c3cccc4ccccc34)ccc21
8 µM | 28 µM | O=C(O)CN1C(=O)c2ccccc2Nc2ccc(OCc3cccc4ccccc34)cc21
7 µM | 14 µM | CCCN1c2ccccc2C(=O)N(CC(=O)O)c2cc(NC(=O)Cc3c[nH]c4ccccc34)ccc21
60 µM | 7 µM | CCCN1c2ccccc2C(=O)N(CC(=O)O)c2cc(OCc3cccc4ccccc34)ccc21
 | 2.4 µM | CC(C)C[C@@H]1NC(=O)[C@@H](C(C)C)NC(=O)[C@@H]2CCCN2C(=O)[C@@H](CC(=O)O)NC(=O)[C@@H](Cc2ccccc2)NC1=O
> 100 µM | 109 µM | O=C(O)CN1C(=O)c2ccccc2Nc2ccc(OCc3ccccc3)cc21
 | 0.018 µM | CC(C)C[C@@H]1NC(=O)[C@@H](C(C)C)NC(=O)[C@@H]2CCCN2C(=O)[C@@H](CC(=O)O)NC(=O)[C@@H](Cc2c[nH]c3ccccc23)NC1=O [BQ-123] (cyclo(L[dW][dD]P[dV]))

— ChEMBL document CHEMBL1128621, “Design and synthesis of nonpeptidal endothelin receptor antagonists based on the structure of a cyclic pentapeptide” (Bioorg Med Chem Lett, 1995)
